Results taken from patent US12344618B2, “Heterotricyclic derivative compound and use of same” (HANMI PHARMACEUTICAL CO., LTD., priority 2019, dated 2025).
Read-outs that look alike come from different tables or passages of the source.

How the values were obtained:
[1] = molecular target: T1, EZH1 (Homo sapiens, UniProt Q92800); test: Inhibitory activity against EZH1 methyltransferase (radiometric scintillation proximity assay); type: biochemical; settings: 2.3 nmol/L enzyme, 90 minutes, room temperature;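 further: Read-out is methylation of a substrate peptide, captured on streptavidin-coated SPA beads and counted by scintillation, in Tris-HCl buffer at pH 8.0 with 1% DMSO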
T1 construct: purchased Reaction Biology Corp. (contract assay)
Method: (§2) The inhibitory activities of the synthetic compounds against EZH1 or EZH2 methyltransferase were measured. The experiment was conducted by Reaction Biology Corp., and the activity of EZH1 or EZH2 was measured using a radiometric scintillation proximity assay. […] The reaction buffer consisted of 50 mmol/L Tris-HCl (pH 8.0), 50 mmol/L NaCl, 1 mmol/L EDTA, 1 mmoL/L DTT, 1 mmol/L PMSF, and 1% DMSO. Trichloroacetic acid was added to terminate the reaction, and PVT streptavidin-coated SPA beads were added to each reaction solution, followed by further reaction at room temperature for 1 hour again. The methylation value of the substrate peptide was measured using the TopCount NXT plate reader.

[2] = system: KARPAS-422 (EZH2 Y641N mutation); test: Cell growth inhibition test, KARPAS-422; type: cell-based; settings: KARPAS-422, culture time 7 days, read-out: Cell growth inhibitory activity (GI50, nM) KARPAS-422 (EZH2 Y641N mutation)
Method: Each type of the cultured cells was seeded in 6-well plates or 48-96 well plates, and subculture or medium replacement was performed every 3 to 4 days. Next, the cells were subcultured for a total of 7 to 14 days, and then seeded in 96-well plates. 3 to 5 days before the measurement of the effect, the cells were seeded in 96-well plates, and then the absorbance (Tz) on the day of seeding was measured. The absorbance after the reaction was measured by the plate reader device Synergy NeoAlpha (Biotek) using Cell-Titer-Glo Cell Viability Assay (Promega, G7573) according to the attached manual. Based on the absorbance (Tz) measured on the seeding day and the absorbance of each of the DMSO-treated group (C) and the sample-added group (Ti) measured on the day of effect determination, the percentage of cell proliferation inhibition was calculated according to the following Equation 1. [(Ti−Tz)/(C−Tz)]×100 for concentrations for which Ti≥Tz […] for concentrations for which Ti<Tz. [Equation 1]

[3] = molecular target: EZH2 (Homo sapiens, UniProt Q15910); test: Inhibitory activity against EZH2 methyltransferase (radiometric scintillation proximity assay); settings: Enzyme inhibitory activity (IC50, nM) EZH2, 2.3 nmol/L enzyme, 90 minutes, room temperature;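 further: Read-out is substrate peptide methylation, captured on streptavidin-coated SPA beads and counted by scintillation, with the reaction run in Tris-HCl buffer at pH 8.0 containing 1% DMSO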
Method: as §2

[4] = Metabolic stability in human liver microsomes; type: in vitro ADME; settings: 5 μM compound, 1 mg/mL human liver microsomes, 37° C., NADPH regenerating system
Method: (§1) In order to confirm the metabolic stability of the synthetic compounds in the liver, 5 μM test compound and 1 mg/mL human, dog, rat or mouse liver microsomes were allowed to react with each other at 37° C. in the presence of the NADPH regenerating system for 1 hour. After 1 hour, the reaction was terminated and the supernatant obtained by centrifugation was analyzed by HPLC. With the peak value obtained as the analysis result, the residual amount (%) was calculated using the following equation through the peak value of the test compound after 1 hour of the reaction versus the peak value of the test compound at 0 min. Residual amount (%)=(peak value of test compound after 1 hour of reaction/peak value of test compound at 0 min)×100

[5] = Metabolic stability in mouse liver microsomes; type: in vitro ADME; settings: 5 μM compound, 1 mg/mL mouse liver microsomes, 37° C., NADPH regenerating system
Method: as §1

[6] = Homo sapiens, KARPAS-422, 168 h

Chain of EZH2 (Q15910 whole entry): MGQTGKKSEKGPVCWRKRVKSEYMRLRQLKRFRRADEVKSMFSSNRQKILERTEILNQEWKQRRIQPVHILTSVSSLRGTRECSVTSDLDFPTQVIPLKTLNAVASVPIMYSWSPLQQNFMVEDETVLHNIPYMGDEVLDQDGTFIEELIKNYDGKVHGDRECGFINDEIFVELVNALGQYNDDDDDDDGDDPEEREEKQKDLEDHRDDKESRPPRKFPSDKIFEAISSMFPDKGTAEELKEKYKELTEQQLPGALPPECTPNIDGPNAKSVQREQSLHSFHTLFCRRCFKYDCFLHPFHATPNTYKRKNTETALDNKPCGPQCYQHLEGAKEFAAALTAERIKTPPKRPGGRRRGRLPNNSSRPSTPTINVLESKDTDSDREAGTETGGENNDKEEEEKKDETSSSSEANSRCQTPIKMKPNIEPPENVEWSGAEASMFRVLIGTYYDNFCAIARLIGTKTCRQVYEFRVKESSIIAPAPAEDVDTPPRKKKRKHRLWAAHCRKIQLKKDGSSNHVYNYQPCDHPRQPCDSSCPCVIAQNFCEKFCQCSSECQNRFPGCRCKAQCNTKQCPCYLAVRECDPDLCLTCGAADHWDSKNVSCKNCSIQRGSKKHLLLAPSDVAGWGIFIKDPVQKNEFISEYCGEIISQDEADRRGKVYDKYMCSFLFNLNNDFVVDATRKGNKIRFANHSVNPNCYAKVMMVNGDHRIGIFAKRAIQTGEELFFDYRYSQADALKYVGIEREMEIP
Chain of EZH2 (O75530 whole entry partner): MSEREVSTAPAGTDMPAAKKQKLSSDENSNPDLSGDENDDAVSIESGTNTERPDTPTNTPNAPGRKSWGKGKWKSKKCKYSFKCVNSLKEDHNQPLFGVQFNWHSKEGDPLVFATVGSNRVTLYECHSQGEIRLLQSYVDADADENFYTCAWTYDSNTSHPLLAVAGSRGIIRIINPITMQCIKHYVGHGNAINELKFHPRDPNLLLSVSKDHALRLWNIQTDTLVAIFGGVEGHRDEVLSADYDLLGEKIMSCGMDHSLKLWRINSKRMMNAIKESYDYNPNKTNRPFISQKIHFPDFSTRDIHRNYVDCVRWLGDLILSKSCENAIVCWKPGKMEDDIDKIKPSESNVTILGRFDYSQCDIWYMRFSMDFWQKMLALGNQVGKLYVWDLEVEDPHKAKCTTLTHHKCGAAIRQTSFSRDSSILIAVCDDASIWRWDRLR
Chain of EZH2 (Q15022 whole entry partner): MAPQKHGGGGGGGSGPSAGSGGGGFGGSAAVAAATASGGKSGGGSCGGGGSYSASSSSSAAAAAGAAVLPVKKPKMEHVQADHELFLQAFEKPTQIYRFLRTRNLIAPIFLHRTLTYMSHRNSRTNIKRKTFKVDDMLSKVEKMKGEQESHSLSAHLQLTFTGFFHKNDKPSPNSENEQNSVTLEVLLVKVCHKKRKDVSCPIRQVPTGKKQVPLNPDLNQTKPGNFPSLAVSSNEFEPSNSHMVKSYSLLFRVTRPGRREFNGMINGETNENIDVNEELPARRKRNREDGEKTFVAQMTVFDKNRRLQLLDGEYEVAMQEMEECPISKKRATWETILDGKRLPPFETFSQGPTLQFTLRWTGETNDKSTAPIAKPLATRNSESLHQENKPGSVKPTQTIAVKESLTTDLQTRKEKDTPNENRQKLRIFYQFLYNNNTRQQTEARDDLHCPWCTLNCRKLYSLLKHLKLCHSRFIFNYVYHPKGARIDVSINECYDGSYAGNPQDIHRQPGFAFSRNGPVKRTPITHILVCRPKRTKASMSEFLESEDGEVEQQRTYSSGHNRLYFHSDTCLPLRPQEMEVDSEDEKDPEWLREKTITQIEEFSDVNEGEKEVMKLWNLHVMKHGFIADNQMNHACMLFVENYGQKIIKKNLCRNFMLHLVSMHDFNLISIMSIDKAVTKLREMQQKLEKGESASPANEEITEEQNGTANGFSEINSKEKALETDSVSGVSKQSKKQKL
Chain of EZH2 (Q09028 whole entry partner): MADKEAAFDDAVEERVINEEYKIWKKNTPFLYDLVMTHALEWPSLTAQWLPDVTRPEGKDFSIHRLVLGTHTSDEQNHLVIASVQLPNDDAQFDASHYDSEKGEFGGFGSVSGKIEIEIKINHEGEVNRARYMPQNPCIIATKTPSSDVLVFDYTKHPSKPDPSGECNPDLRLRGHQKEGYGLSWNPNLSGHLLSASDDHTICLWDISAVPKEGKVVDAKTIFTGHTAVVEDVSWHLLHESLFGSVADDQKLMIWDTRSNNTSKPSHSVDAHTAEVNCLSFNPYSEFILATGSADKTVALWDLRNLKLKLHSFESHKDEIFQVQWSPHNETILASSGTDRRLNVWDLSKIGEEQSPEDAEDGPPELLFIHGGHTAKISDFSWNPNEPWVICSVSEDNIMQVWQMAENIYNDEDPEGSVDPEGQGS
Chain of EZH2 (Q6ZN18 whole entry partner): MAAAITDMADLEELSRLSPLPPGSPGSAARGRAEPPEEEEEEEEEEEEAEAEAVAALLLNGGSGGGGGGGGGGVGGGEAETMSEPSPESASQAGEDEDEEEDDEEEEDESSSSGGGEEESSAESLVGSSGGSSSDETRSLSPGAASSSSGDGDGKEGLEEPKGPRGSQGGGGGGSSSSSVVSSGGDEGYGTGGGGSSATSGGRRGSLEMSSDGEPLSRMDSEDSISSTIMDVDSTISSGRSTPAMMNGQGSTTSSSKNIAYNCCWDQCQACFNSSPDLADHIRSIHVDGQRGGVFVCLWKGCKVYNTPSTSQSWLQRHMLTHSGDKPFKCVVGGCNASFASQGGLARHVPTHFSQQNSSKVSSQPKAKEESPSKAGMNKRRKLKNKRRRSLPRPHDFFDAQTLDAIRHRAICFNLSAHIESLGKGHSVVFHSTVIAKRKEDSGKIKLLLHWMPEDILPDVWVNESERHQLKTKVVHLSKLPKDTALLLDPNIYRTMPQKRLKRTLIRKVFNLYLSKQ
T1 sequence (Q92800 whole entry): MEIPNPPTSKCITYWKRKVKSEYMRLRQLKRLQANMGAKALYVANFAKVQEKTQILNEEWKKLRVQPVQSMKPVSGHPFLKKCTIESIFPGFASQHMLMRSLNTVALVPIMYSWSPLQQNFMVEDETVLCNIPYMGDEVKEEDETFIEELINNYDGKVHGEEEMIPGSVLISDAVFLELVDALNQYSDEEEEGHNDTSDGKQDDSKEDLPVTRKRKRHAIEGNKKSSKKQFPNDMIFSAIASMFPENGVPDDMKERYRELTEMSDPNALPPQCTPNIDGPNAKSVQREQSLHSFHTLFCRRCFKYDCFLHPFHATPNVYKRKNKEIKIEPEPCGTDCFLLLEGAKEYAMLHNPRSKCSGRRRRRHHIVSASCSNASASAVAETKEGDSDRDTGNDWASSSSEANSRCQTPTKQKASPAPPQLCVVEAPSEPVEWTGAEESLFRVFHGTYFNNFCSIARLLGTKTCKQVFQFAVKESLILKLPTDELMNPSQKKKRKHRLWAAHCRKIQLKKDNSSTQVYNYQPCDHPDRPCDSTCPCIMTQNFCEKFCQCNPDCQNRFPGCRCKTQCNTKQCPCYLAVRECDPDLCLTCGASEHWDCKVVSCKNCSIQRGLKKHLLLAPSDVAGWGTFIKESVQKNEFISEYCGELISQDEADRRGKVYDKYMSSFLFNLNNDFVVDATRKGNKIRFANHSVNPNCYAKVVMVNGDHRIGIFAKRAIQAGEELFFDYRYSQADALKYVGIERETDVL
T1 sequence (O75530 whole entry partner): as the sequence (O75530 whole entry partner) above
T1 sequence (Q15022 whole entry partner): as the sequence (Q15022 whole entry partner) above
T1 sequence (Q09028 whole entry partner): as the sequence (Q09028 whole entry partner) above
T1 sequence (Q6ZN18 whole entry partner): as the sequence (Q6ZN18 whole entry partner) above

| SMILES | IC50 [1] [nM] | GI50 [2, 6] [nM] | IC50 [3] [nM] | GI50 [2] [nM] | Residual amount (%) of test compound after 1 hour of reaction, Human [4] [%] | Residual amount (%) of test compound after 1 hour of reaction, Mouse [5] [%] |
| --- | --- | --- | --- | --- | --- | --- |
| CCN[C@H]1CC[C@H](C2(C)Oc3c(C)c4c(c(Cl)c3O2)CCN(Cc2c(C)cc(C)[nH]c2=O)C4=O)CC1 (stereo partly drawn) [Compound 15, 9-chloro-6-((4,6-dimethyl-2-oxo-1,2-dihydropyridin-3-yl)methyl)-2-(trans-4-(ethylamino)cyclohexyl)-2,4-dimethyl-7,8-dihydro-[1,3]dioxolo[4,5-g]isoquinolin-5(6H)-one] | 65 | 18 | 3.6 |  |  |  |
| Cc1cc(C)c(CN2CCc3c(Cl)c4c(c(Cl)c3C2=O)OC(C)([C@H]2CC[C@H](N(C)C)CC2)O4)c(=O)[nH]1 (stereo partly drawn) [Compound 7, 4,9-dichloro-6-((4,6-dimethyl-2-oxo-1,2-dihydropyridin-3-yl)methyl)-2-(trans-4-(dimethylamino)cyclohexyl)-2-methyl-7,8-dihydro-[1,3]dioxolo[4,5-g]isoquinolin-5(6H)-one] | 54 | 4.8 | 3.8 |  |  |  |
| Cc1cc(C)c(CN2CCc3c(Cl)c4c(c(C)c3C2=O)OC(C)(CCCCN(C)C)O4)c(=O)[nH]1 (stereo not shown) [Compound 26, 9-chloro-6-((4,6-dimethyl-2-oxo-1,2-dihydropyridin-3-yl)methyl)-2-(4-(dimethylamino)butyl)-2,4-dimethyl-7,8-dihydro-[1,3]dioxolo[4,5-g]isoquinolin-5(6H)-one] | 85 | 99 | 6.2 |  |  |  |
| Cc1cc(C)c(CN2CCc3c(Cl)c4c(c(C)c3C2=O)OC(C)(C2CCN(C)CC2)O4)c(=O)[nH]1 (stereo not shown) [Compound 29, 9-chloro-6-((4,6-dimethyl-2-oxo-1,2-dihydropyridin-3-yl)methyl)-2,4-dimethyl-2-(1-methylpiperidin-4-yl)-7,8-dihydro-[1,3]dioxolo[4,5-g]isoquinolin-5(6H)-one] | 136 | 51 | 5 |  |  |  |
| Cc1cc(C)c(CN2CCc3c(Cl)c4c(c(C)c3C2=O)OC(C)(C2CCOCC2)O4)c(=O)[nH]1 (stereo not shown) [Compound 24, 9-chloro-6-((4,6-dimethyl-2-oxo-1,2-dihydropyridin-3-yl)methyl)-2,4-dimethyl-2-(tetrahydro-2H-pyran-4-yl)-7,8-dihydro-[1,3]dioxolo[4,5-g]isoquinolin-5(6H)-one] | 34 | 62 | 3 |  |  |  |
| Cc1cc(C)c(CN2CCc3c(Cl)c4c(c(C)c3C2=O)OC(C)([C@H]2CC[C@H](N3CCCCC3)CC2)O4)c(=O)[nH]1 (stereo partly drawn) [Compound 17, 9-chloro-6-((4,6-dimethyl-2-oxo-1,2-dihydropyridin-3-yl)methyl)-2,4-dimethyl-2-(trans-4-(piperidin-1-yl)cyclohexyl)-7,8-dihydro-[1,3]dioxolo[4,5-g]isoquinolin-5(6H)-one] | 74 | 52 | 5.6 |  |  |  |
| Cc1cc(C)c(CN2CCc3c(Cl)c4c(c(C)c3C2=O)OC(C)(C2CCNCC2)O4)c(=O)[nH]1 (stereo not shown) [Compound 28, 9-chloro-6-((4,6-dimethyl-2-oxo-1,2-dihydropyridin-3-yl)methyl)-2,4-dimethyl-2-(piperidin-4-yl)-7,8-dihydro-[1,3]dioxolo[4,5-g]isoquinolin-5(6H)-one] | 55 | 14 | 3.2 |  |  |  |
| CC[C@@H](O)C(=O)N1CCC(C2(C)Oc3c(C)c4c(c(Cl)c3O2)CCN(Cc2c(C)cc(C)[nH]c2=O)C4=O)CC1 (stereo partly drawn) [Compound 30, 9-chloro-6-((4,6-dimethyl-2-oxo-1,2-dihydropyridin-3-yl)methyl)-2-(1-((R)-2-hydroxybutanoyl)piperidin-4-yl)-2,4-dimethyl-7,8-dihydro-[1,3]dioxolo[4,5-g]isoquinolin-5(6H)-one] | 190 | 307 | 3.4 |  |  |  |
| Cc1cc(C)c(CN2CCc3c(Cl)c4c(c(C)c3C2=O)OC(C)(C2CCN(CC(F)(F)F)CC2)O4)c(=O)[nH]1 (stereo not shown) [Compound 31, 9-chloro-6-((4,6-dimethyl-2-oxo-1,2-dihydropyridin-3-yl)methyl)-2,4-dimethyl-2-(1-(2,2,2-trifluoroethyl)piperidin-4-yl)-7,8-dihydro-[1,3]dioxolo[4,5-g]isoquinolin-5(6H)-one] | 51 | 231 | 3.8 |  |  |  |
| Cc1cc(C)c(CN2CCc3c(Cl)c4c(c(C)c3C2=O)OC(C)(C[C@H]2CC[C@H](N(C)C)CC2)O4)c(=O)[nH]1 (stereo partly drawn) [Compound 21, 9-chloro-6-((4,6-dimethyl-2-oxo-1,2-dihydropyridin-3-yl)methyl)-2-((trans-4-(dimethylamino)cyclohexyl)methyl)-2,4-dimethyl-7,8-dihydro-[1,3]dioxolo[4,5-g]isoquinolin-5(6H)-one] | 137 | 75 | 7.2 |  |  |  |
| Cc1cc(C)c(CN2CCc3c(Cl)c4c(c(C)c3C2=O)OC(C)(C2CCCCC2)O4)c(=O)[nH]1 (stereo not shown) [Compound 22, 9-chloro-2-cyclohexyl-6-((4,6-dimethyl-2-oxo-1,2-dihydropyridin-3-yl)methyl)-2,4-dimethyl-7,8-dihydro-[1,3]dioxolo[4,5-g]isoquinolin-5(6H)-one] | 180 | > 1000 | 16 |  |  |  |
| Cc1cc(C)c(CN2CCc3c(Cl)c4c(c(C)c3C2=O)OC(C)(C[C@H]2CC[C@H](N)CC2)O4)c(=O)[nH]1 (stereo partly shown) [Compound 20] | 48 | 18 | 3.7 |  |  |  |
| Cc1cc(C)c(CN2CCc3c(Cl)c4c(c(C)c3C2=O)OC(C)([C@H]2CC[C@H](N3CCCC3)CC2)O4)c(=O)[nH]1 (stereo partly drawn) [Compound 18, 9-chloro-6-((4,6-dimethyl-2-oxo-1,2-dihydropyridin-3-yl)methyl)-2,4-dimethyl-2-(trans-4-(pyrrolidin-1-yl)cyclohexyl)-7,8-dihydro-[1,3]dioxolo[4,5-g]isoquinolin-5(6H)-one] | 47 | 16 | 4.3 |  |  |  |

The next lines start with the values.

| IC50 [1] [nM] | GI50 [2, 6] [nM] | IC50 [3] [nM] | GI50 [2] [nM] | Residual amount (%) of test compound after 1 hour of reaction, Human [4] [%] | Residual amount (%) of test compound after 1 hour of reaction, Mouse [5] [%] | SMILES |
| --- | --- | --- | --- | --- | --- | --- |
| 16 |  | 1.3 | 2.4 | 89 | 78 | Cc1cc(C)c(CN2CCc3c(C)c4c(c(Cl)c3C2=O)OC(C)([C@H]2CC[C@H](N(C)C)CC2)O4)c(=O)[nH]1 (single isomer, unassigned) [Compound 5, 4-chloro-6-((4,6-dimethyl-2-oxo-1,2-dihydropyridin-3-yl)methyl)-2-(trans-4-(dimethylamino)cyclohexyl)-2,9-dimethyl-7,8-dihydro-[1,3]dioxolo[4,5-g]isoquinolin-5(6H)-one] |
| 27 | 50 | 3.2 |  |  |  | CCCc1cc(C)[nH]c(=O)c1CN1CCc2c(Cl)c3c(c(C)c2C1=O)OC(C)([C@H]1CC[C@H](N(C)C)CC1)O3 (stereo partly drawn) [Compound 14, 9-chloro-2-(trans-4-(dimethylamino)cyclohexyl)-2,4-dimethyl-6-((6-methyl-2-oxo-4-propyl-1,2-dihydropyridin-3-yl)methyl)-7,8-dihydro-[1,3]dioxolo[4,5-g]isoquinolin-5(6H)-one] |
| 65 | 10 | 2.7 |  |  |  | Cc1cc(C)c(CN2CCc3c(C#N)c4c(c(C)c3C2=O)OC(C)([C@H]2CC[C@H](N(C)C)CC2)O4)c(=O)[nH]1 (stereo partly drawn) [Compound 69, 6-((4,6-dimethyl-2-oxo-1,2-dihydropyridin-3-yl)methyl)-2-(trans-4-(dimethylamino)cyclohexyl)-2,4-dimethyl-5-oxo-5,6,7,8-tetrahydro-[1,3]dioxolo[4,5-g]isoquinolin-9-carbonitrile] |
| 41 | 19 | 6.4 |  |  |  | Cc1cc(C)c(CN2CCc3c(c(C)c4c(c3C3CC3)OC(C)([C@H]3CC[C@H](N(C)C)CC3)O4)C2=O)c(=O)[nH]1 (stereo partly drawn) [Compound 54, 9-cyclopropyl-6-((4,6-dimethyl-2-oxo-1,2-dihydropyridin-3-yl)methyl)-2-(trans-4-(dimethylamino)cyclohexyl)-2,4-dimethyl-7,8-dihydro-[1,3]dioxolo[4,5-g]isoquinolin-5(6H)-one] |
| 89 | 68 | 11 |  |  |  | CCN(CC)[C@H]1CC[C@H](C2(C)Oc3c(C)c4c(c(Cl)c3O2)CCN(Cc2c(C)cc(C)[nH]c2=O)C4=O)CC1 (stereo partly drawn) [Compound 16, 9-chloro-2-(trans-4-(diethylamino)cyclohexyl)-6-((4,6-dimethyl-2-oxo-1,2-dihydropyridin-3-yl)methyl)-2,4-dimethyl-7,8-dihydro-[1,3]dioxolo[4,5-g]isoquinolin-5(6H)-one] |
| 20 |  | 7 |  |  |  | CCN(C)[C@H]1CC[C@H](C2(C)Oc3c(C)c4c(c(C)c3O2)C(=O)N(Cc2c(OC)cc(C)[nH]c2=O)CC4)CC1 (stereo partly shown) [Compound 47] |
